According to US11903955B2, “Methods of treating heart failure with reduced ejection fraction” (ASTRAZENECA AB, priority 2019, dated 2024):
Where two headings read alike, the source gives them in different places.

System: patients with chronic heart failure with reduced ejection fraction (LVEF ≤40%)
Text: Eligibility requirements included an age of at least 18 years, New York Heart Association (NYHA) class II, III, or IV symptoms, and an ejection fraction of 40% or less. […] Patients with atrial fibrillation or atrial flutter on their baseline electrocardiogram were required to have a NT-proBNP level of at least 900 pg/mL, irrespective of history of heart failure hospitalization. Patients were required to receive standard drug and device therapy for heart failure including an angiotensin-converting enzyme (ACE) inhibitor, angiotensin receptor blocker (ARB), or sacubitril/valsartan; a beta-blocker, unless contraindicated or not tolerated, and a mineralocorticoid receptor (MR) […], if considered appropriate. Doses were required to be individually optimized, in accordance with the targets recommended in guidelines, and stable for at least 4 weeks (excepting diuretics, which could be dosed flexibly). Investigators were advised that patients with type 2 diabetes should continue to take their glucose-lowering therapies, but these could be adjusted as required. Specifically, the protocol stated that the dose of insulin, sulfonylurea treatment, or both, could be reduced to minimize the risk of hypoglycemia, for example in patients with a baseline hemoglobin A1C (HbA1c) level below 7%.
All the patients provided written informed consent and entered a 14-day enrollment period during which the trial inclusion and exclusion criteria were checked and baseline information gathered, including findings from clinical examination and laboratory measurements. […] Investigators used an interactive voice or web response system to obtain treatment assignment. Randomization was stratified based on a diagnosis of type 2 diabetes, defined as either an established diagnosis or a HbA1c level of 6.5% or greater (≥48 mmol/mol) confirmed in a central laboratory at screening. Patients were evaluated at 14 days and 60 days after randomization, with a focus on assessment of heart failure and volume status, adverse events, and checking renal function and potassium. Further study visits took place at 4 months and at 4-month intervals thereafter. The protocol required that study drug be permanently discontinued if pregnancy or diabetic ketoacidosis occurred.
The primary outcome was a composite of a first episode of worsening heart failure or death from cardiovascular causes. An episode of worsening heart failure was either an unplanned hospitalization for heart failure or an urgent heart failure visit requiring intravenous therapy.^14 The first of the secondary outcomes was the composite of heart failure hospitalization or cardiovascular death.
Outcomes were adjudicated by a clinical-end-points committee, blinded to treatment assignment, according to prespecified criteria.
Using a two-sided alpha of 5%, we calculated that 844 primary endpoints would provide a statistical power of 90% for the test of the hypothesis. With an expected annual event rate of 11% in the placebo treatment group, approximately 4500 patients were estimated to provide the required number of primary events, based on an anticipated recruitment period of 18 months and an average follow-up period of approximately 24 months. A closed testing procedure was used, including a prespecified hierarchical testing of the primary and secondary endpoints in the order specified above. Type I error was controlled at a two-sided 0.0499 alpha level for multiplicity across primary and secondary endpoints and taking account of one interim efficacy analysis.
Data from all randomly assigned patients were included in the analyses of the primary and secondary outcomes, according to the intention-to-treat principle. Baseline characteristics were summarized as means and standard deviations, medians and inter-quartile ranges, or percentages.

CCOc1ccc(Cc2cc([C@@H]3O[C@H](CO)[C@@H](O)[C@H](O)[C@H]3O)ccc2Cl)cc1 [Dapagliflozin, dapagliflozin]
Cardiovascular death or hospitalization for heart failure, No. (%) (No T2DM (N = 1298)): 169 (13.0) No. (%)
Cardiovascular death or hospitalization for heart failure, Subjects with Event/100 Patient-Yr (No T2DM (N = 1298)): 9.1 Event/100 Patient-Yr
Cardiovascular death, No. (%) (No T2DM (N = 1298)): 106 (8.2) No. (%)
Cardiovascular death, Subjects with Event/100 Patient-Yr (No T2DM (N = 1298)): 5.5 Event/100 Patient-Yr
Death from any cause, No. (%) (No T2DM (N = 1298)): 133 (10.3) No. (%)
Death from any cause, Subjects with Event/100 Patient-Yr (No T2DM (N = 1298)): 6.9 Event/100 Patient-Yr
Hospitalization for heart failure or an urgent heart failure visit, No. (%) (No T2DM (N = 1298)): 95 (7.3) No. (%)
Hospitalization for heart failure or an urgent heart failure visit, Subjects with Event/100 Patient-Yr (No T2DM (N = 1298)): 5.1 Event/100 Patient-Yr
Hospitalization for heart failure, No. (%) (No T2DM (N = 1298)): 93 (7.2) No. (%)
Hospitalization for heart failure, Subjects with Event/100 Patient-Yr (No T2DM (N = 1298)): 5.0 Event/100 Patient-Yr
Primary composite outcome, No. (%) (No T2DM (N = 1298)): 171 (13.2) No. (%)
Primary composite outcome, Subjects with Event/100 Patient-Yr (No T2DM (N = 1298)): 9.2 Event/100 Patient-Yr
Total number of (first and recurrent) heart failure hospitalizations and cardiovascular death (No T2DM (N = 1298)): 239
Urgent heart failure visit, No. (%) (No T2DM (N = 1298)): 3 (0.2) No. (%)
Urgent heart failure visit, Subjects with Event/100 Patient-Yr (No T2DM (N = 1298)): 0.2 Event/100 Patient-Yr
Worsening renal function (composite), No. (%) (No T2DM (N = 1298)): 10 (0.8) No. (%)
Worsening renal function (composite), Subjects with Event/100 Patient-Yr (No T2DM (N = 1298)): 0.5 Event/100 Patient-Yr
Cardiovascular death or hospitalization for heart failure, No. (%) (T2DM (N = 1075)): 213 (19.8) No. (%)
Cardiovascular death or hospitalization for heart failure, Subjects with Event/100 Patient-Yr (T2DM (N = 1075)): 14.4 Event/100 Patient-Yr
Cardiovascular death, No. (%) (T2DM (N = 1075)): 121 (11.3) No. (%)
Cardiovascular death, Subjects with Event/100 Patient-Yr (T2DM (N = 1075)): 7.7 Event/100 Patient-Yr
Death from any cause, No. (%) (T2DM (N = 1075)): 143 (13.3) No. (%)
Death from any cause, Subjects with Event/100 Patient-Yr (T2DM (N = 1075)): 9.1 Event/100 Patient-Yr
Hospitalization for heart failure or an urgent heart failure visit, No. (%) (T2DM (N = 1075)): 142 (13.2) No. (%)
Hospitalization for heart failure or an urgent heart failure visit, Subjects with Event/100 Patient-Yr (T2DM (N = 1075)): 9.6 Event/100 Patient-Yr
Hospitalization for heart failure, No. (%) (T2DM (N = 1075)): 138 (12.8) No. (%)
Hospitalization for heart failure, Subjects with Event/100 Patient-Yr (T2DM (N = 1075)): 9.3 Event/100 Patient-Yr
Primary composite outcome, No. (%) (T2DM (N = 1075)): 215 (20.0) No. (%)
Primary composite outcome, Subjects with Event/100 Patient-Yr (T2DM (N = 1075)): 14.6 Event/100 Patient-Yr
Total number of (first and recurrent) heart failure hospitalizations and cardiovascular death (T2DM (N = 1075)): 328
Urgent heart failure visit, No. (%) (T2DM (N = 1075)): 7 (0.7) No. (%)
Urgent heart failure visit, Subjects with Event/100 Patient-Yr (T2DM (N = 1075)): 0.4 Event/100 Patient-Yr
Worsening renal function (composite), No. (%) (T2DM (N = 1075)): 18 (1.7) No. (%)
Worsening renal function (composite), Subjects with Event/100 Patient-Yr (T2DM (N = 1075)): 1.2 Event/100 Patient-Yr
Cardiovascular death or hospitalization for heart failure, Events/100 Patient-Yr (all patients (N = 2373)): 11.4 Events/100 Patient-Yr
Cardiovascular death or hospitalization for heart failure, No. (%) (all patients (N = 2373)): 382 (16.1) No. (%)
Cardiovascular death, Events/100 Patient-Yr (all patients (N = 2373)): 6.5 Events/100 Patient-Yr
Cardiovascular death, No. (%) (all patients (N = 2373)): 227 (9.6) No. (%)
Death from any cause, Events/100 Patient-Yr (all patients (N = 2373)): 7.9 Events/100 Patient-Yr
Death from any cause, No. (%) (all patients (N = 2373)): 276 (11.6) No. (%)
Hospitalization for heart failure or an urgent heart failure visit, Events/100 Patient-Yr (all patients (N = 2373)): 7.1 Events/100 Patient-Yr
Hospitalization for heart failure or an urgent heart failure visit, No. (%) (all patients (N = 2373)): 237 (10.0) No. (%)
Hospitalization for heart failure, Events/100 Patient-Yr (all patients (N = 2373)): 6.9 Events/100 Patient-Yr
Hospitalization for heart failure, No. (%) (all patients (N = 2373)): 231 (9.7) No. (%)
Primary composite outcome, Events/100 Patient-Yr (all patients (N = 2373)): 11.6 Events/100 Patient-Yr
Total number of (first and recurrent) heart failure hospitalizations and cardiovascular death (all patients (N = 2373)): 567
Urgent heart failure visit, Events/100 Patient-Yr (all patients (N = 2373)): 0.3 Events/100 Patient-Yr
Urgent heart failure visit, No. (%) (all patients (N = 2373)): 10 (0.4) No. (%)
Worsening renal function (composite), Events/100 Patient-Yr (all patients (N = 2373)): 0.8 Events/100 Patient-Yr
